Measured values from patent publication US20150197497A1, “SELECTIVE INHIBITORS OF HISTONE DEACETYLASE ISOFORM 6 AND METHODS THEREOF” (DANA-FARBER CANCER INSTITUTE, INC., priority 2011, published 2015).

Assays:
[1] = system: acetylated tubulin; assay: High-content image analysis of induction of acetylated tubulin in A549 cells; conditions: for EC50: Homo sapiens, A549, 8 h, read-out: EC50 for half-maximal induction of acetylated tubulin (AcTubulin); for AcHistone/AcTubulin in cell selectivity toward HDAC6: ratio of EC50 acetylated histone to EC50 acetylated tubulin
[2] = target: T1, HDAC4 (Homo sapiens, UniProt P56524); assay: In vitro HDAC enzyme inhibition assay, HDAC4; type: biochemical; conditions: for HDAC4/HDAC6 in vitro selectivity: ratio of IC50 for HDAC4 relative to that of HDAC6; for IC50: recombinant full-length HDAC4, substrate MAZ1675 10 μM; for selectivity toward HDAC6 compared to HDAC4 (in words): tested in vitro
T1 construct: Recombinant, full-length HDAC protein (BPS Biosciences) was incubated with fluorophore conjugated substrate; purchased BPS Biosciences
T1 sequence (P56524 whole entry): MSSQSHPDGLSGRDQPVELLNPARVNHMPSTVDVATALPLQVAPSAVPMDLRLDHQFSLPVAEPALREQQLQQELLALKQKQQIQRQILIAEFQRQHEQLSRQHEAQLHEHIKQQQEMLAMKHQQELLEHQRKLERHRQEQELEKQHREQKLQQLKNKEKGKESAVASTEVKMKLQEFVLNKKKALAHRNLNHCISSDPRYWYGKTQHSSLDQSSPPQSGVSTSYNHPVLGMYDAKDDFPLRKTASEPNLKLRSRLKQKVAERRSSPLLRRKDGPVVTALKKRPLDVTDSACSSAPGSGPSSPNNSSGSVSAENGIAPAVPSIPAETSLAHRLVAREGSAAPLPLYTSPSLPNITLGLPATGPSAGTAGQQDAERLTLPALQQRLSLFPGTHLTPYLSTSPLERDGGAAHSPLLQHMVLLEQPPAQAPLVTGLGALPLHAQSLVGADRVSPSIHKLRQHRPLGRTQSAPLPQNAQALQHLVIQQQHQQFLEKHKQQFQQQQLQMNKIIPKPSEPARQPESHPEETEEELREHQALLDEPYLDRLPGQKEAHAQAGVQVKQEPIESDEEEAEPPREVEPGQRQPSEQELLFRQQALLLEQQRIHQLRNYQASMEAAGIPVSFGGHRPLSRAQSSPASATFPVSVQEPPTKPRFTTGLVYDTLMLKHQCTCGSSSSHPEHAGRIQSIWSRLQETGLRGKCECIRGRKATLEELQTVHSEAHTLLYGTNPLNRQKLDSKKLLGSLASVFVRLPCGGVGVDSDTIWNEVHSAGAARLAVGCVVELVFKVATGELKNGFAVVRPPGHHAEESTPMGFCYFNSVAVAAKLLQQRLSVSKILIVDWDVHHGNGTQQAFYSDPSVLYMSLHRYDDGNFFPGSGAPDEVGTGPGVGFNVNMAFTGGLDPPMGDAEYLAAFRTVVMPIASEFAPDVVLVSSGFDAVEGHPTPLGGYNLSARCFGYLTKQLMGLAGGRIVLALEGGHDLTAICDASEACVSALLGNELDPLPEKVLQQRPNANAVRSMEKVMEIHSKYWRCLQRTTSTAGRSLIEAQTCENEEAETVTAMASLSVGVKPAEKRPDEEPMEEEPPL
Procedure: (§1) In vitro Histone Deacetylase enzyme assays were performed using Class I (isoforms: HDAC1, HDAC2, HDAC3 and HDAC8), class IIa (isoforms: HDAC4, HDAC5, HDAC7 and HDAC9) and class IIb (isoform HDAC6).
(§2) HDAC activities were determined in vitro with an optimized homogenous assay performed in a 384-well plate. Recombinant, full-length HDAC protein (BPS Biosciences) was incubated with fluorophore conjugated substrate, MAZ1600 and MAZ1675, at Km=[S]. […] Reactions were performed in assay buffer (50 mM HEPES, 100 mM KCl, 0.001% Tween-20, 0.05% BSA, 200 μM tris(2-carboxyethyl)phosphine (TCEP), pH 7.4) and followed for fluorogenic release of 7-amino-4-methylcoumarin from substrate upon deacetylase and trypsin enzymatic activity. Fluorescence measurements were obtained every five minutes using a multilabel plate reader and plate-stacker (Envision; Perkin-Elmer). Each plate was analyzed by plate repeat, and the first derivative within the linear range was imported into analytical software (Spotfire DecisionSite and GraphPad Prism). Replicate experimental data from incubations with inhibitor were normalized to controls.

[3] = target: T2, HDAC2 (Homo sapiens, UniProt Q92769); assay: In vitro HDAC enzyme inhibition assay, HDAC2; type: biochemical; conditions: for HDAC2/HDAC6 in vitro selectivity: ratio of IC50 for HDAC2 relative to that of HDAC6; for IC50: recombinant full-length HDAC2, substrate MAZ1600 22 μM
T2 construct: Recombinant, full-length HDAC protein (BPS Biosciences) was incubated with fluorophore conjugated substrate; purchased BPS Biosciences
T2 sequence (Q92769 whole entry): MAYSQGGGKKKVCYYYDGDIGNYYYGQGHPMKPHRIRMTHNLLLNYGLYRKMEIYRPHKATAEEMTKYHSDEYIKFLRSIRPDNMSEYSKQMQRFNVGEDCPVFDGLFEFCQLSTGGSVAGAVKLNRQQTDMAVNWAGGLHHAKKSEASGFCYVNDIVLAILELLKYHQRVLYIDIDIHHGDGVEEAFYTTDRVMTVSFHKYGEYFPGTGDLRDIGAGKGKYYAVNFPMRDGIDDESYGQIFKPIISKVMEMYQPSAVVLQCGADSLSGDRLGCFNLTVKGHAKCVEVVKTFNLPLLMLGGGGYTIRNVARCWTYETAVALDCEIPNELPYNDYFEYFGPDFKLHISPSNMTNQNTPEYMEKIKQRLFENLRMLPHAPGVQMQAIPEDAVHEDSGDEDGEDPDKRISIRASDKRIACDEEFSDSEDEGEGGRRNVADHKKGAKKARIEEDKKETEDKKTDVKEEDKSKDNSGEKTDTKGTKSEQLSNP
Procedure: as §1, §2

[4] = target: T3, HDAC8 (Homo sapiens, UniProt Q9BY41); assay: In vitro HDAC enzyme inhibition assay, HDAC8; type: biochemical; conditions: for HDAC8/HDAC6 in vitro selectivity: ratio of IC50 for HDAC8 relative to that of HDAC6; for IC50: recombinant full-length HDAC8, substrate MAZ1675 282 μM
T3 construct: Recombinant, full-length HDAC protein (BPS Biosciences) was incubated with fluorophore conjugated substrate; purchased BPS Biosciences
T3 sequence (Q9BY41 1-377): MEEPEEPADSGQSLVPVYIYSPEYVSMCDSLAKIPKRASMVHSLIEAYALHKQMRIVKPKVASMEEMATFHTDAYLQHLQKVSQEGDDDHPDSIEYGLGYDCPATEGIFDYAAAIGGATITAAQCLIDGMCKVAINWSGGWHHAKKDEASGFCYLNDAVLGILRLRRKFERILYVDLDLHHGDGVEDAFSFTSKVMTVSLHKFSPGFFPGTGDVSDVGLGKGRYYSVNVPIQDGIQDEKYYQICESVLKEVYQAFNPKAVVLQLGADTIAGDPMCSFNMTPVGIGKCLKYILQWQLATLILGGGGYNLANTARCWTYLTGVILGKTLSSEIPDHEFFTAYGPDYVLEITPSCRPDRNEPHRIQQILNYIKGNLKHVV
Procedure: as §1, §2

[5] = target: T4, HDAC1 (Homo sapiens, UniProt Q13547); assay: In vitro HDAC enzyme inhibition assay, HDAC1; type: biochemical; conditions: for HDAC1/HDAC6 in vitro selectivity: ratio of IC50 for HDAC1 relative to that of HDAC6; for IC50: recombinant full-length HDAC1, substrate MAZ1600 21 μM
T4 construct: Recombinant, full-length HDAC protein (BPS Biosciences) was incubated with fluorophore conjugated substrate; purchased BPS Biosciences
T4 sequence (Q13547 whole entry): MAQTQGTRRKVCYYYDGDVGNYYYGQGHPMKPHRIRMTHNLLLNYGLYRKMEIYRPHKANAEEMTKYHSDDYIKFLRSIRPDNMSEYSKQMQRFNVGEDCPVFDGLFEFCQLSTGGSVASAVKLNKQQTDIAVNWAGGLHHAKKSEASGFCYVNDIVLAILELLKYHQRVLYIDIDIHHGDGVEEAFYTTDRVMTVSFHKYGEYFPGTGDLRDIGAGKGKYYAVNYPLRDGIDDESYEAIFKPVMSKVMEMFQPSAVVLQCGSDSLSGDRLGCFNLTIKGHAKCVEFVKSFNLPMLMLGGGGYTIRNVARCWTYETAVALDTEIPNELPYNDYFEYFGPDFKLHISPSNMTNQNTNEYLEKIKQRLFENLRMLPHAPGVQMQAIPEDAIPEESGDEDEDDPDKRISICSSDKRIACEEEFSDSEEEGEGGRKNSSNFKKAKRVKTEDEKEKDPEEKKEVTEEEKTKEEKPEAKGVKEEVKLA
Procedure: as §1, §2

[6] = target: T5, HDAC3 (Homo sapiens, UniProt O15379); assay: In vitro HDAC enzyme inhibition assay, HDAC3; type: biochemical; conditions: for HDAC3/HDAC6 in vitro selectivity: ratio of IC50 for HDAC3 relative to that of HDAC6; for IC50: recombinant full-length HDAC3, substrate MAZ1600 9 μM
T5 construct: Recombinant, full-length HDAC protein (BPS Biosciences) was incubated with fluorophore conjugated substrate; purchased BPS Biosciences
T5 sequence (O15379 whole entry): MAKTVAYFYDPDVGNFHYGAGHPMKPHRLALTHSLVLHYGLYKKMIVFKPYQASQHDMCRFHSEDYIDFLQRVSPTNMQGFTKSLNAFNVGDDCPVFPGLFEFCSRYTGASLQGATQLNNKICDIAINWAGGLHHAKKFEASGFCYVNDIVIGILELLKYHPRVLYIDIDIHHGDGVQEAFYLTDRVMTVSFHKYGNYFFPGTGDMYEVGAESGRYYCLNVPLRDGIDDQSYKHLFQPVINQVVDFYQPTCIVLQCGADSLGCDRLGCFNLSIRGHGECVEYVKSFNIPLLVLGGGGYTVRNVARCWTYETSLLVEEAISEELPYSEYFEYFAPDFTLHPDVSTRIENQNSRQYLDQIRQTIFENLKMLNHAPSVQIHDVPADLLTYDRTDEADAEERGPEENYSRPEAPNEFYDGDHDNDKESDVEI
T5 sequence (Q9Y618 395-489 partner limits assumed): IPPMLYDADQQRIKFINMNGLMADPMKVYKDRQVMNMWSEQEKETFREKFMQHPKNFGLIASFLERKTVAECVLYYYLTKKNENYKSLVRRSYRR
Procedure: as §1, §2

Row | EC50 [1] [nM] | HDAC4/HDAC6 in vitro selectivity [2] | IC50 [2] [nM] | HDAC2/HDAC6 in vitro selectivity [3] | IC50 [3] [nM] | HDAC8/HDAC6 in vitro selectivity [4] | IC50 [4] [nM] | HDAC1/HDAC6 in vitro selectivity [5] | IC50 [5] [nM] | HDAC3/HDAC6 in vitro selectivity [6] | IC50 [6] [nM] | SMILES | AcHistone/AcTubulin in cell selectivity toward HDAC6 ([1]; A549 cells) | selectivity toward HDAC6 compared to HDAC4 (in words) [2] | selectivity toward HDAC6 compared to HDAC8 (in words) ([4]; tested in vitro) | levels of acetylated tubulin, dose response (in words) ([1]; A549 cells, FIG. 11)
1 | 212 | 2414 | 946 | 522 | 205 | 3927 | 1540 | 629 | 246 | 2067 | 810 | COc1ccc2c(c1)nc(C(F)(F)F)n2Cc1ccc(C(=O)NO)cc1 [A6, N-hydroxy-4-((5-methoxy-2-(trifluoromethyl)-1H-benzo[d]imidazol-1-yl)methyl)benzamide] | 12.2081 | – | – | –
2 | 48.5 | 229041 | 1420 | 1754 | 10.9 | 48637 | 302 | 1951 | 12.1 | 2366 | 14.7 | O=C(NO)c1ccc(Cn2c(=O)[nH]c3cc(C(F)(F)F)ccc32)cc1 [B6, N-hydroxy-4-((2-oxo-5-(trifluoromethyl)-2,3-dihydro-1H-benzo[d]imidazol-1-yl)methyl)benzamide] | 12.98 | exceptionally high selectivity (Inhibitors with in vitro selectivity values for HDAC6 of at least 30,000 are considered to have exceptionally high selectivity toward HDAC6) | – | dose-dependent increase
3 | 77.3 | 1901 | 1090 | 844 | 484 | 2540 | 1460 | 812 | 466 | 3126 | 1790 | O=C(NO)c1ccc(Cn2c(C(F)(F)F)nc3cc(F)ccc32)cc1 [A3, 4-((5-fluoro-2-(trifluoromethyl)-1H-benzo[d]imidazol-1-yl)methyl)-N-hydroxybenzamide] | 7.664 | – | – | –

Continued, compound first:

Row | SMILES | EC50 [1] [nM] | HDAC4/HDAC6 in vitro selectivity [2] | IC50 [2] [nM] | HDAC2/HDAC6 in vitro selectivity [3] | IC50 [3] [nM] | HDAC8/HDAC6 in vitro selectivity [4] | IC50 [4] [nM] | HDAC1/HDAC6 in vitro selectivity [5] | IC50 [5] [nM] | HDAC3/HDAC6 in vitro selectivity [6] | IC50 [6] [nM] | AcHistone/AcTubulin in cell selectivity toward HDAC6 ([1]; A549 cells) | selectivity toward HDAC6 compared to HDAC4 (in words) [2] | selectivity toward HDAC6 compared to HDAC8 (in words) ([4]; tested in vitro) | levels of acetylated tubulin, dose response (in words) ([1]; A549 cells, FIG. 11)
4 | O=C(NO)c1ccc(Cn2nnc3cc(F)ccc32)cc1 [C3, 4-((5-fluoro-1H-benzo[d][1,2,3]triazol-1-yl)methyl)-N-hydroxybenzamide] | 144 | 81082 | 2130 | 10108 | 266 | 28870 | 759 | 8300 | 218 | 19646 | 516 | 10.4517 | exceptionally high selectivity (Inhibitors with in vitro selectivity values for HDAC6 of at least 30,000 are considered to have exceptionally high selectivity toward HDAC6) | – | –
5 | O=C(NO)c1ccc(Cn2cnc3cc(Br)ccc32)cc1 [A11, 4-((5-bromo-1H-benzo[d]imidazol-1-yl)methyl)-N-hydroxybenzamide] | 174 | 93190 | 1550 | 1601 | 26.7 | 18285 | 305 | 1725 | 28.7 | 3936 | 65.6 | 11.31 | exceptionally high selectivity (Inhibitors with in vitro selectivity values for HDAC6 of at least 30,000 are considered to have exceptionally high selectivity toward HDAC6) | – | –
6 | O=C(NO)c1ccc(Cn2c(=O)[nH]c3ccccc32)cc1 [B1, N-hydroxy-4-((2-oxo-2,3-dihydro-1H-benzo[d]imidazol-1-yl)methyl)benzamide] | 89.4 | 153386 | 2230 | 6974 | 101 | 46328 | 673 | 9665 | 140 | 14575 | 212 | 2.941 | exceptionally high selectivity (Inhibitors with in vitro selectivity values for HDAC6 of at least 30,000 are considered to have exceptionally high selectivity toward HDAC6) | exceptionally high selectivity (Inhibitors with in vitro selectivity values for HDAC6 of at least 30,000 are considered to have exceptionally high selectivity toward HDAC6) | –
7 | O=C(NO)c1ccc(Cn2nnc3ccccc32)cc1 [C1, 4-((1H-benzo[d][1,2,3]triazol-1-yl)methyl)-N-hydroxybenzamide] | 2700 | 66860 | 1070 | 4884 | 78.1 | 19098 | 305 | 3996 | 63.9 | 10277 | 164 | 2.641 | exceptionally high selectivity (Inhibitors with in vitro selectivity values for HDAC6 of at least 30,000 are considered to have exceptionally high selectivity toward HDAC6) | – | –
8 | O=C(NO)c1ccc(Cn2c(=O)[nH]c3cc(F)ccc32)cc1 [B3, 4-((5-fluoro-2-oxo-2,3-dihydro-1H-benzo[d]imidazol-1-yl)methyl)N-hydroxybenzamide] | 70.2 | 79927 | 1720 | 3002 | 64.7 | 12899 | 278 | 2749 | 59.3 | 6307 | 136 | 21.1 | exceptionally high selectivity (Inhibitors with in vitro selectivity values for HDAC6 of at least 30,000 are considered to have exceptionally high selectivity toward HDAC6) | – | –
9 | O=C(NO)c1ccc(Cn2c(=O)[nH]c3cc(Br)ccc32)cc1 [B5, 4-((5-bromo-2-oxo-2,3-dihydro-1H-benzo[d]imidazol-1-yl)methyl)-N-hydroxybenzamide] | 132 | 57687 | 1180 | 444 | 9.09 | 12655 | 259 | 508 | 10.4 | 495 | 10.1 | 6.398 | exceptionally high selectivity (Inhibitors with in vitro selectivity values for HDAC6 of at least 30,000 are considered to have exceptionally high selectivity toward HDAC6) | – | –
